Results from patent US12714721B2, “Methods of treatment of a cytokine storm” (Loma Linda University Health, priority 2020, dated 2026).
“Also recorded” adds a separate entry of the source.

Key:
Assay type in all cases: in vivo, mouse
whole kidney tissue = assay: Measurements of mRNA expression in the kidney (real-time PCR), LPS-induced AKI; conditions: for Orai1 gene expression: 7 days after LPS 20 mg/kg (FIG. 2E); for NGAL gene expression: 7 days after LPS (FIG. 6C); for proinflammatory cytokines gene expression (IL-1b, IL-17, IL-6, TNF-α, IL-18): 7 days after LPS (FIGS. 3A-3E)
Protocol: (§1) Experimental Design for IGF-1 and BTP-2 studies—The animal experiments involved B6 mice between 5-8 weeks of age. Most experiments involved five groups of animals: (1) healthy, (2) LPS untreated (LPS-No Tx), (3) IGF-I in vivo gene therapy one day before LPS injection (LPS+IGF-1), (4) BTP-2 16 mg/kg i.p. at the start of the study and the (5) combined therapy with IGF-I and BTP-2 (LPS-IGF-1+BTP-2). For the survival experiment, a lethal dose of LPS (25 mg/kg) was used and all of the untreated animals died by 72 hours. In the other experiments, a sublethal dose of LPS (20 mg/kg) was used.
(§2) LPS induced sepsis and subsequent AKI—Female C57BL/6 mice received a sublethal or lethal dose of LPS from E. coli (0127: B8 strain, Sigma Aldrich, St. Louis, MO, USA) in a concentration of 20 or 25 mg/kg body weight administrated in sterile PBS by intraperitoneal injection.
(§3) Treatment—In a preventive therapeutic strategy, some of the mice received an intramuscular injection of Lenti-IGF-1 24 hours before LPS injection; whereas, the calcium signaling blocker BTP-2 (16 mg/kg, Cayman Chemical) was administrated 1 hour before LPS injection. Some of the animals received a combination of Lenti-IGF-1 and BTP-2. Control group mice were injected with an equal volume of PBS.
Measurements of mRNA Expression in the Kidney—For the measurement of the mRNA expressions of whole kidney tissue, we performed real-time PCR. The relative amount of mRNA was calculated using the comparative Ct(ΔΔCt) method. All specific amplicons were normalized against GAPDH.

lung = assay: Lung immunocytochemistry (CD31, α-SMA); conditions: lung sections (FIG. 14A)
Protocol: (§4) Acute Lung Injury Induced by LPS—Female C57BL/6 mice received a sublethal or lethal dose of LPS from Escherichia coli (0127: B8 strain, Sigma Aldrich, St. Louis, MO, USA). LPS in sterile PBS was administered intraperitoneally at 20- or 25-mg/kg body weight.
(§5) Treatment for Lung Studies-Lenti-IGF-I was administered intramuscularly 24 h before LPS injection. The TRP and ORAI calcium channel blocker BTP-2 (YM-58483 16 mg/kg, Cayman Chemical, Ann Arbor, MI, USA) was given IP 1 h before LPS injection. Some of the animals received a combination of lenti-IGF-I and BTP-2. Mice in control groups were injected with an equal volume of PBS.
Lung Immunocytochemistry—After the mice were sacrificed, one part of the lung was immediately cut, fixed in a 10% neutral-buffered formalin solution, embedded in paraffin, and used for histopathological examination. Ten-micrometer-thick sections were cut, deparaffinized, and hydrated. All lung serial sections were incubated at 4° C. overnight with one of two antibodies: rabbit polyclonal antibody against PECAM (CD31) (Santa Cruz Biotechnology, Dallas, TX, USA) or rabbit polyclonal antibody against α-SMA (Abcam, Cambridge, MA, USA). After washing, biotinylated goat anti-rabbit IgG (1:200, Vector Labs, Burlingame, CA, USA) were applied to the sections for 30 min at room temperature. […]

[1] = test system: LPS induced sepsis and subsequent AKI; assay: Renal function assessment: serum creatinine in LPS induced AKI
Protocol: as §1, §2, §3
[…] Serum creatinine (CREA) were detected by Creatinine Assay Kit (Cayman Chemicals).

kidneys = assay: Vascular leakage permeability assay (Evans blue dye), kidney; conditions: day 1 (FIG. 5A)
Protocol: as §1
LPS induced sepsis and subsequent AKI—Female C57BL/6 mice received a sublethal or lethal dose of LPS from E. coli (0127: B8 strain, Sigma Aldrich, St. Louis, MO, USA) in a concentration of 20 or 25 mg/kg body weight administrated in sterile PBS by intraperitoneal injection. […]
Vascular leakage permeability assay—Evans blue dye (EBD) was dissolved in a 0.9% saline solution at a concentration of 5 mg/mL and injected to the mouse tail vein (50 mg/kg, i.v.). […] The absorbance of the supernatants was measured at 620 and 740 nm using a dual-wave ELISA plate reader.

whole lung tissues = assay: Measurements of mRNA expression in the lungs (RT-qPCR), acute lung injury induced by LPS; conditions: for CD31 gene expression: lungs (FIG. 12A); for VEGF gene expression: lungs (FIG. 12B); for α-SMA gene expression: lungs (FIG. 12C); for TRPC3 gene expression: day 7 (FIG. 10B); for TRPC6 gene expression: day 7 (FIG. 10C); for Orai1 gene expression: day 7 (FIG. 10D); for NGAL expression: day 7 (FIG. 15A); for SP-D expression: day 7 (FIG. 15B); for caspase 3 expression: day 7 (FIG. 15C); for proinflammatory cytokines gene expression (IL-1, IL-6, IL-17, TNF-α, IFN-γ): day 7 (FIGS. 11A-11E); for TLR-4 gene expression: seven days after LPS (FIG. 10A)
Protocol: as §4, §5
Measurements of mRNA Expression in the Lungs—For the measurement of the mRNA expressions of the whole lung tissues, RT-qPCR was performed. Lung tissues were snap-frozen in liquid nitrogen. According to the manufacturer's instructions, total RNA was isolated using the RNeasy Micro Kit® (Qiagen, Valencia, CA, USA). First-strand cDNA was synthesized using the SuperScript® III Reverse Transcriptase (Life Technologies, Grand Island, NY, USA). Quantitative RT-qPCR was performed and analyzed in an Applied Biosystems 7900HT Real-Time PCR machine (Applied Biosystems, Foster City, CA). The PCR condition was 10 min at 95° C. followed by 40 cycles of 10 s at 95° C. and 15 s at 60° C. The relative amount of mRNA was calculated using the comparative Ct (DDCt) method. All specific amplicons were normalized against GAPDH. Table 2 (SEQ ID Nos:1-36) provides for a list of the primers.

[2] = at 48 hours after LPS (FIG. 6A)

Compound | Orai1 gene expression (whole kidney tissue) | NGAL gene expression (whole kidney tissue) | proinflammatory cytokines gene expression (IL-1b, IL-17, IL-6, TNF-α, IL-18) (whole kidney tissue) | immunocytochemical evaluation of CD31 (% of the area of CD31 staining) (lung) | serum creatinine [1, 2] | vascular leakage (extravasation of Evans blue dye) (kidneys) | CD31 gene expression (whole lung tissues) | VEGF gene expression (whole lung tissues) | α-SMA gene expression (whole lung tissues) | IFN-γ expression (whole lung tissues; lungs, day 7) | IL-17 expression (whole lung tissues; lungs, day 7) | TNF-α expression (whole lung tissues; lungs, day 7) | TRPC3 gene expression (whole lung tissues; lungs) | TRPC6 gene expression (whole lung tissues; lungs) | Orai1 gene expression (whole lung tissues; lungs) | NGAL expression (whole lung tissues; lungs) | SP-D expression (whole lung tissues; lungs) | caspase 3 expression (whole lung tissues; lungs) | proinflammatory cytokines gene expression (IL-1, IL-6, IL-17, TNF-α, IFN-γ) (whole lung tissues; lungs) | TLR-4 gene expression (whole lung tissues; lungs) | also measured
IGF-I: Insulin-like Growth Factor, delivered by a lentiviral vector engineered to express IGF-I injected into skeletal muscle | decreased Orai1 expression | improved | decreased | significantly improved | improved | improved | corrected | did not affect the VEGF expression | did not indicate such beneficial effects | decreased; also recorded: corrected | markedly decreased | marked decreases; also recorded: decreased | decreased; also recorded: significant decrease | decreased; also recorded: significant decrease | decreased; also recorded: significant decrease | significantly reduced the elevated NGAL expression almost to normal | normalized | corrected the elevated caspase 3 expression | decreased the gene expression most of the proinflammatory cytokines to normal; also recorded: remarkably suppressive; also recorded: as effective as BTP-2 | decreased the TLR-4 gene expression to the normal level | serum creatinine ([1]; LPS i.p. day 0, measured 7 days later, IGF-I gene therapy one day prior to LPS (FIG. 1B)): normalized; IL-6 expression (whole lung tissues; lungs, day 7): markedly decrease
Cc1nnsc1C(=O)Nc1ccc(-n2nc(C(F)(F)F)cc2C(F)(F)F)cc1 [BTP-2, 3,5-bis(trifluoromethyl)pyrazole derivative] | decreased Orai1 expression to normal; also recorded: marked decrease | improved | decreased | significantly improved | normalized | more so | corrected | markedly increased the VEGF expression | completely corrected | decreased; also recorded: corrected | markedly decreased | marked decreases; also recorded: decreased | decreased; also recorded: normalized | decreased; also recorded: normalized | significant decrease; also recorded: normalized | significantly reduced the elevated NGAL expression almost to normal | normalized | corrected the elevated caspase 3 expression | decreased the gene expression most of the proinflammatory cytokines to normal; also recorded: remarkably suppressive | decreased the TLR-4 gene expression to the normal level | Nf-kB gene expression (whole kidney tissue; 7 days after LPS (FIG. 2C)): decreased; CD31 gene expression (whole kidney tissue; 7 days after LPS (FIG. 5C)): increased; calcineurin gene expression (whole lung tissues; lungs, day 7 (FIG. 10E)): decreased; also recorded: normalized; Nfat gene expression (whole lung tissues; lungs, day 7 (FIG. 10F)): decreased; also recorded: normalized
